Assay results from PubChem BioAssay (NCI).
“And” between values parts separate entries of the source, which are not always exact repeats. Identical values can stand only once.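 Following 48 hours of exposure in 96-well plates, responses at five concentrations were used to interpolate endpoints linearly. At the GI50, growth is halved. TGI: total growth inhibition.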

What was measured:
Assay in all cases: inhibition of tumour cell growth, NCI panel, 48 h
[1] = tested on: KM12 colon
[2] = tested on: MDA-MB-435
[3] = tested on: NCI-H522 lung
[4] = tested on: OVCAR-4 ovarian
[5] = tested on: SF-539 CNS
[6] = tested on: SR leukemia

Structure (SMILES) | TGI [1] | TGI [2] | TGI [3] | TGI [4] | TGI [5] | TGI [6] | GI50 [1] | GI50 [2] | GI50 [5] | GI50 [3]
CC[C@@]1(O)C(=O)OCc2c1cc1n(c2=O)Cc2c-1nc1ccc(O)cc1c2[Si](C)(C)C(C)(C)C | 0.131 µM | 1.65 µM | 0.135 µM | 0.174 µM | < 0.01 µM | < 0.0112 µM | – | – | – | –
CCCC[C@@H](C)/C=C1\CN2CCC[C@H]2[C@@](C)(OCc2ccccc2)[C@@H]1O | > 18.9 µM | > 50 µM | > 50 µM | > 50 µM | 49.7 µM | > 50 µM | – | – | – | –
COC(C/C(=C/CO[Si](C(C)C)(C(C)C)C(C)C)C(=O)N(COCC[Si](C)(C)C)c1ccccc1I)OC | > 100 µM | 29.1 µM | – | > 100 µM | – | > 100 µM | – | – | – | –
O[C@@H]1C=C[C@]23CCN(Cc4cc5c(cc42)OCO5)[C@@H]3C1 | > 100 µM | > 100 µM | > 100 µM | > 100 µM | > 100 µM | > 100 µM | – | – | – | –
COC(=O)[C@@H]1CS(=O)(=O)C(C(C)C)N1C(C)=O (stereo partly specified) | > 100 µM | > 100 µM | > 100 µM | > 100 µM | > 100 µM | > 100 µM | – | – | – | –
Cc1cn(C2CCC(CO)(CF)O2)c(=O)[nH]c1=O (stereo unspecified) | > 100 µM | > 100 µM | > 100 µM | > 100 µM | > 100 µM | > 100 µM | – | – | – | –
Cn1nc2ccc(Nc3cc(=O)[nH]c4ccc5nn(C)nc5c34)cc2n1 | > 100 µM | > 100 µM | > 100 µM | > 100 µM | > 100 µM | > 100 µM | – | – | – | –
FC(F)(F)c1cc(N(C2c3ccccc3C=Cc3ccccc32)P(Cl)Cl)cc(C(F)(F)F)c1 | 49.4 µM | 64.9 µM | 28.6 µM | 42.9 µM | 66.6 µM | 46.9 µM | – | – | – | –
COc1cc2cc(C(=O)N3CC(COS(C)(=O)=O)c4ccc(NC(=O)OCc5ccccc5)cc43)[nH]c2c(OC)c1OC (stereo unspecified) | > 100 µM | > 100 µM | > 100 µM | > 100 µM | > 100 µM | > 100 µM | – | – | – | –
Cc1cc(C)c2c(c1)CC1(Cc3cc(C)c(C)cc3C1=O)C2=O (stereo unspecified) | > 100 µM | > 100 µM | > 100 µM | > 100 µM | > 100 µM | > 100 µM | – | – | – | –
C[C@@H]1[C@@H](C)C(c2ccccc2)O[Si]1(C(C)(C)C)C(C)(C)C (stereo partly specified) | 30.6 µM | 76.3 µM | 28.7 µM | > 86.1 µM | 30.7 µM | 29.3 µM | – | – | – | –
C1=C(c2ccccc2)C(N2CCOCC2)Oc2ccccc21 (stereo unspecified) | > 100 µM | > 100 µM | > 100 µM | > 100 µM | > 100 µM | > 100 µM | – | – | – | –
N#CC(CCN1CCC(Nc2ccccc2)(c2nnnn2C2CCCCC2)CC1)(c1ccccc1)c1ccccc1 | > 100 µM | > 100 µM | > 100 µM | > 100 µM | > 100 µM | > 100 µM | – | – | – | –
O=C1COc2cc(N3CCN(c4cccc(C(F)(F)F)c4)CC3)ccc2N1 | > 100 µM | > 100 µM | > 100 µM | > 100 µM | > 100 µM | > 100 µM | – | – | – | –
c1nc(NCCc2cnc[nH]2)c2[nH]cnc2n1 | > 100 µM | > 100 µM | > 100 µM | > 100 µM | > 100 µM | > 100 µM | – | – | – | –
COc1cccc(N=N/C(=N/NC(=O)c2ccc(C)cc2)c2ccc(N(CCC#N)CCC#N)cc2OC)c1 | > 100 µM | > 100 µM | > 100 µM | > 100 µM | – | > 100 µM | – | – | – | –
O=P1(N2CCOCC2)OCCO1 | > 100 µM | > 100 µM | > 100 µM | > 100 µM | – | > 100 µM | – | – | – | –
Cc1c(C(=O)c2ccc(N)c3ccccc23)c2ccccc2n1CCN1CCOCC1 | 49.1 µM | 37 µM | 58.4 µM | > 47.8 µM | 50.8 µM | > 85.3 µM | – | – | – | –
CC1=NN(c2cccc(Cl)c2)C2(C1=Cc1ccc(O)cc1)C(Cl)C(=O)N2c1nc2ccccc2s1 (stereo unspecified) | 65 µM | 83.4 µM | 49 µM | > 100 µM | > 100 µM | 57.7 µM | – | – | – | –
O=c1c2cc(C(F)(F)F)ccc2sc2c(NCCCNCCO)nc3ccccc3c12 | 3.17 µM | 3.04 µM | – | – | 3.03 µM | – | 1.62 µM | 1.62 µM | 1.6 µM | –
COc1cc(/C=C2\CC/C(=C\c3cc(OC)c(O)c(OC)c3)C2=O)cc(OC)c1O | 4.52 µM | 4.19 µM | 2.75 µM | 6.05 µM | > 100 µM | > 100 µM | – | – | – | –
Cn1cnc(N)c(N=O)c1=O | > 10 µM | > 10 µM | > 10 µM | > 10 µM | > 10 µM | > 10 µM | – | – | – | –
O=c1[nH]c(=O)n(C2CC(O)C(CO)O2)cc1Oc1ccccc1 (stereo unspecified) | > 100 µM | > 100 µM | > 100 µM | > 100 µM | – | > 100 µM | – | – | – | –

Structure (SMILES) | TGI [1] | TGI [2] | TGI [3] | TGI [4] | TGI [5] | TGI [6] | GI50 [1] | GI50 [2] | GI50 [5] | GI50 [3]
C1=NCCNCCNCCN=Cc2ccc(cc2)OCc2cccc(n2)COc2ccc1cc2 | > 100 µM | > 100 µM | – | > 100 µM | > 100 µM | > 100 µM | – | – | – | –
CCOC(=O)c1ccc(Nc2nc3ccccc3nc2-c2cccs2)cc1 | > 100 µM | > 100 µM | 80.7 µM | – | > 100 µM | > 100 µM | – | – | – | –
CCN1C/C(=C\c2ccc(Cl)cc2)c2nc(N)c(C#N)c(-c3ccc(Cl)cc3)c2C1 | > 100 µM | > 100 µM | > 100 µM | > 100 µM | – | > 100 µM | – | – | – | –
CC1CC[C@@]2(OC1)O[C@H]1[C@H](O)[C@H]3[C@@H]4CC[C@H]5C[C@@H](OC6OC(CO)C(OC7OC(CO)C(O)C(OC8OCC(O)C(O)C8O)C7OC7OC(CO)C(O)C(O)C7OC7OC(CO)C(O)C(O)C7O)C(O)C6O)[C@H](O)C[C@]5(C)[C@H]4CC[C@]3(C)[C@H]1[C@@H]2C (stereo partly specified) | > 10 µM | > 10 µM | 6.87 µM | > 10 µM | > 10 µM | – | – | – | – | –
N#C/C(=C/C=C/c1ccco1)C(N)=O | > 10 µM | > 10 µM | > 10 µM | – | > 10 µM | – | – | – | – | –
Cc1cc(-n2nnc(C(=O)O)c2-c2ccccc2)c2ccc(Cl)cc2n1 | > 100 µM | > 100 µM | > 100 µM | > 100 µM | > 100 µM | – | – | – | – | –
CN(Cc1cnc2nc(N)nc(N)c2n1)c1ccc(C(=O)NC23CC4CC(CC(C4)C2)C3)cc1 | 24.8 µM | 31.6 µM | – | – | – | > 100 µM | – | – | – | –
N#CC1(C#N)C(C#N)(C#N)C1(C#N)C(N)=O | > 100 µM | > 100 µM | > 100 µM | > 100 µM | – | > 100 µM | – | – | – | –
CCC1(O)CC(OC2CC(N(C)C)C(OC3CC(O)C(OC4OC(C)C(=O)C=C4N)C(C)O3)C(C)O2)c2c(cc3c(c2O)C(=O)c2c(O)cccc2C3=O)C1C(=O)OC (stereo unspecified) | 1.13 µM and 1.5 µM | 0.282 µM and 0.05 µM | 0.319 µM | – | 0.502 µM and 1.4 µM | 1.06 µM | – | – | – | –
O=C1CCCNn2c(nc3ncccc3c2=O)N1 | > 100 µM | > 100 µM | > 100 µM | > 100 µM | > 100 µM | – | – | – | – | –
CNc1nnc(CCCCCCCCc2nnc(NC)o2)o1 | > 100 µM | > 100 µM | – | > 100 µM | > 100 µM | – | – | – | – | –
Cc1ccc(S(=O)(=O)NC(=O)NC(Cc2ccc(O)cc2)C(=O)O)cc1 (stereo unspecified) | > 100 µM | – | > 100 µM | > 100 µM | > 100 µM | > 100 µM | – | – | – | –
CC1CC/C(=C\c2ccc(F)cc2)C2=C1C(c1ccc(F)cc1)N1C(=O)CSC1=N2 (stereo unspecified) | > 100 µM | > 100 µM | – | – | > 100 µM | – | – | – | – | –
Cc1c(CNc2ccc(C(=O)NC(CCCNC(=O)c3ccccc3C(=O)O)C(=O)O)cc2)cnc2nc(N)nc(N)c12 (stereo unspecified) | – | – | – | – | – | – | – | – | – | 0.00428 µM
C#CC(O)(c1nc2ccccc2s1)c1nc2ccccc2s1 | > 100 µM | 87.6 µM | 39.7 µM | > 100 µM | 36.7 µM | – | – | – | – | –
O=C(COc1ccc(OCC(=O)N2C(=O)CC(=O)N(c3ccc(Cl)cc3)C2=S)cc1)N1C(=O)CC(=O)N(c2ccc(Cl)cc2)C1=S | 41.6 µM | > 100 µM | 53.8 µM | > 100 µM | – | – | – | – | – | –
CSC(SC)=C(C#N)C(=O)Nc1cccc(Cl)c1 | > 100 µM | > 100 µM | 43.8 µM | > 100 µM | > 100 µM | – | – | – | – | –
ClC(Cl)(Cl)C1CCOC1n1nnc2ccccc21 (stereo unspecified) | – | > 100 µM | > 100 µM | – | > 100 µM | – | – | – | – | –
COC(=O)[C@H](Cc1c[nH]c2ccccc12)NP(=O)(OCCC#N)OCC1OC(n2cc(C)c(=O)[nH]c2=O)CC1N=[N+]=[N-] (stereo partly specified) | > 100 µM | > 100 µM | > 100 µM | > 100 µM | – | – | – | – | – | –
COc1ccc(C2C3=C(N=C4SC(C(C)=O)=C(C)N42)c2ccccc2CC3)cc1 (stereo unspecified) | > 100 µM | > 100 µM | – | > 100 µM | > 100 µM | – | – | – | – | –
Cc1nc2cc(F)c(F)cc2[nH]c1=O | > 100 µM | > 100 µM | – | > 100 µM | > 100 µM | – | – | – | – | –
Cc1cc2[nH]c3c(C#N)c(-c4ccccc4)c(N=Nc4ccc(F)cc4)c(=O)n3c2cc1C | – | > 100 µM | > 100 µM | > 100 µM | > 100 µM | – | – | – | – | –
